The term EC50 denotes the concentration at which the effect is half-maximal.

Assay [1] deals with H1975 human non-small cell lung cancer cells. The assay is described as follows: MTT cell activity assay, H1975 cells. It counts as cell-based. Conditions: NCI-H1975, 72 hrs with compound, absorption at 570 nm or 490 nm. The procedure:
(§1) H1975/HCC827: human non-small cell lung cancer cells, PBS, MTT, DMEM culture medium, pancreatin, a multichannel pipette, a vortex mixer, a microplate reader, a biosafety cabinet, a 5% CO2 cell culture incubator, a cell counter, a microscope, a thermostatic water bath, and a 96-pore plate.
(§2) 1. H1975/HCC827 cells was cleaned with PBS, digested with pancreatin, centrifuged at room temperature for 5 min at 1000 rpm, re-suspended with an appropriate amount of culture medium, and counted by a cell counting plate. The cells were inoculated to the 96-pore plate by the multichannel pipette at 1000-2000 cells/pore/100 μl, with 6 complex pores for each concentration and totally 6 concentration gradients. The basis of the number of cells: upon final test, OD570 was between 0.2-0.8 (Lambert-Beer's Law).
(§3) 2. The compounds were prepared into […] of mother liquor by using DMSO. 10 μl of mother liquor was added into 90 μl of DMSO, and the mixture was uniformly mixed by the vortex mixer and diluted in turn for 5 times to obtain DMSO stock solution. The stock solution was stored at 4° C. for standby. The stock solution was uniformly mixed again before use and then added into a complete culture medium in 1:500 to serve as working solution, and then the mixture was mixed uniformly by the vortex mixer. The working solution needs to be immediately used after prepared well to avoid precipitation after long-term storage.
(§4) 3. The 96-pore plate was cultured in the cell incubator for 24 hrs, then added with 100 μl of the working solution prepared from the compounds, and continued to be cultured together for 72 hrs.
(§5) 4. The upper-layer culture medium was removed carefully, then 100 μl of culture medium containing MTT (0.5 mg/ml) was added again, and the culture medium was placed in the incubator for 4 hrs. The culture medium was removed completely, then 100 μl of DMSO was added, and the mixture was shocked uniformly. Preparation of MTT: 1.25 g of MTT was added into 250 ml of PBS, and then the mixture was mixed uniformly and stored away from light at 4° C.
(§6) 5. The light absorption value at 570 nm or 490 nm was detected by the microplate reader. EC50 was calculated and an added value curve was drawn by Graphpad.

For assay [2], the system named is HCC827 human non-small cell lung cancer cells. The assay is described as follows: MTT cell activity assay, HCC827 cells. It is filed as cell-based. Conditions: 72 hrs with compound, absorption at 570 nm or 490 nm. The procedure: as §1, §2, §3, §4, §5, §6
(Tetrazolium assays rely on reduction of a dye to a coloured formazan, in cell work by metabolically active cells.)

In the case of `C#Cc1cccc(Nc2ncnc3cc(OCCOC(=O)C(C)c4ccc(CC(C)C)cc4)c(OCCOC(=O)C(C)c4ccc(CC(C)C)cc4)cc23)c1` (stereo not shown) [Embodiment 18, 2,2′-(4-(3-ethynylaniline)quinazoline-6,7-diene)di(oxy)bis(ethyl-2,1-diene)-bis(2-(4-isobutylphenyl)propanoic acid)], the EC50 in assay [1] is 805 µM.
In the case of `C#Cc1cccc(Nc2ncnc3cc(OCCOC)c(OCCOC(=O)c4ccccc4OC(C)=O)cc23)c1` [Embodiment 3, 2-(4-(3-ethynylaniline)-7-(2-methoxyethoxy)quinazoline-6-oxy)ethyl-2-acetoxybenzoic acid], the figures for the EC50 in assay [2] and in assay [1] were 160 nM and 12.2 µM, respectively.
Consider `C#Cc1cccc(Nc2ncnc3cc(OCCOC(=O)Cc4c(C)n(C(=O)c5ccc(Cl)cc5)c5ccc(OC)cc45)c(OCCOC)cc23)c1` [Embodiment 14, 3-(4-(3-ethynylaniline)-6-(2-methoxyethoxy)quinazoline-7-oxy)ethyl-2-(1-(4-chlorobenzoyl)-5-methoxy-2-methyl-1H-indol-3-ene)acetic acid], for which the EC50 in assay [2] was found to be 630 nM; in assay [1] it was 95.8 µM.
For `C#Cc1cccc(Nc2ncnc3cc(OCCOC(=O)c4ccc(C(=O)Nc5ccc6c(c5)C(C)(C)CCC6(C)C)cc4)c(OCCOC(=O)c4ccc(C(=O)Nc5ccc6c(c5)C(C)(C)CCC6(C)C)cc4)cc23)c1` [Embodiment 24, 2,2′-(4-(3-ethynylaniline)quinazoline-6,7-diene)di(oxy)bis(ethyl-2,1-diene)-bis(4-(5,5,8,8-tetramethyl-5,6,7,8-tetralin-2-alkenylcarbamyl)benzoic acid)], the EC50 is 1140 nM in assay [2] and 52.9 µM in assay [1].
Consider `C#Cc1cccc(Nc2ncnc3cc(OCCOC(=O)C4=Cc5cc(Cl)c(C(C)(C)C)cc5OC4C(F)(F)F)c(OCCOC(=O)C4=Cc5cc(Cl)c(C(C)(C)C)cc5OC4C(F)(F)F)cc23)c1` (stereo not shown) [Embodiment 21, 2,2′-(4-(3-ethynylaniline)quinazoline-6,7-diene)di(oxy)bis(ethyl-2,1-diene)-bis(7-7-tert-butyl-6-chloro-2-(trifluoromethyl)-2H-pyran-3-carboxylic acid)], for which the EC50 in assay [2] came to 1050 nM; in assay [1] it was 75.6 µM.
For `C#Cc1cccc(Nc2ncnc3cc(OCCOC(=O)Cc4c(C)n(C(=O)c5ccc(Cl)cc5)c5ccc(OC)cc45)c(OCCOC(=O)Cc4c(C)n(C(=O)c5ccc(Cl)cc5)c5ccc(OC)cc45)cc23)c1` [Embodiment 22, 2,2′-(4-(3-ethynylaniline)quinazoline-6,7-diene)di(oxy)bis(ethyl-2,1-diene)-bis(2-(1-(4-chlorobenzoyl)-5-methoxy-2-methyl-1H-indol-3-ene)acetic acid)], the half-maximal effective concentration (EC50) is 3620 nM in assay [2] and 55.3 µM in assay [1].
Consider `C#Cc1cccc(Nc2ncnc3cc(OCCOC)c(OCCOC(=O)C4=Cc5cc(Cl)c(C(C)(C)C)cc5OC4C(F)(F)F)cc23)c1` (stereo not shown) [Embodiment 4], for which the EC50 turned out to be 610 nM in assay [2] and 32.9 µM in assay [1].
Take `C#Cc1cccc(Nc2ncnc3cc(OCCOC(=O)C(C)c4ccc(CC(C)C)cc4)c(OCCOC)cc23)c1` (stereo not shown) [Embodiment 10, 2-(4-(3-ethynylaniline)-6-(2-methoxyethoxy)quinazoline-7-oxy)ethyl-2-(4-isobutylphenyl)propanoic acid]: the EC50 amounted to 280 nM in assay [2] and 8.65 µM in assay [1].
In the same order, the values of `C#Cc1cccc(Nc2ncnc3cc(OCCOC(=O)c4ccccc4OC(C)=O)c(OCCOC)cc23)c1` [Embodiment 11, 2-(4-(3-ethynylaniline)-6-(2-methoxyethoxy)quinazoline-7-oxy)ethyl-2-acetoxyl benzoic acid] are 130 nM and 13.8 µM.
On to `C#Cc1cccc(Nc2ncnc3cc(OCCOC(=O)c4ccccc4OC(C)=O)c(OCCOC(=O)c4ccccc4OC(C)=O)cc23)c1` [Embodiment 19, 2,2′-(4-(3-ethynylaniline)quinazoline-6,7-diene)di(oxy)bis(ethyl-2,1-diene)-bis(2-acetoxylbenzoic acid)], for which the EC50 amounted to 200 nM in assay [2] and 41.7 µM in assay [1].
In the same order, the values of `C#Cc1cccc(Nc2ncnc3cc(OCCOC(=O)C(C)c4ccc5cc(OC)ccc5c4)c(OCCOC)cc23)c1` (stereo not shown) [Embodiment 13, 2-(4-(3-ethynylaniline)-6-(2-methoxyethoxy)quinazoline-7-oxy)ethyl-2-(6-methoxylnaphthyl-2-ene)propanoic acid] are 90 nM and 27.2 µM.
For the compound `C#Cc1cccc(Nc2ncnc3cc(OCCOC(=O)C(C)c4ccc(C(=O)c5ccccc5)cc4)c(OCCOC(=O)C(C)c4ccc(C(=O)c5ccccc5)cc4)cc23)c1` (stereo not shown) [Embodiment 17, 2,2′-(4-(3-ethynylaniline)quinazoline-6,7-diene)di(oxy)bis(ethyl-2,1-diene)-bis(2-(4-benzoylphenyl)propanoic acid)], the EC50 in assay [2] was found to be 1500 nM.

Source of the values: US9452220B2, “Coupling compounds of NSAID anti-inflammatory and analgesic drugs and EGFR kinase inhibitors, synthesis methods and applications thereof” (Guangzhou Institutes of Biomedicine and Health, Chinese …, priority 2014, dated 2016).
